Data: US20090076067A1, “PHARMACEUTICAL COMPOSITION COMPRISING AZARHODACYANINE COMPOUND AS ACTIVE INGREDIENT” (priority 2005, published 2009)
Like-named read-outs stand apart in the source and are kept apart here.

Tests used:
Assay type in all cases: cell-based
[1] = tested on: Trypanosoma cruzi (Tulahuen C2C4 strain); assay: American trypanosoma protozoa proliferation inhibition screening test; settings: for Selective toxicity: EC50 rat L6 cells / EC50 American trypanosoma protozoa; for EC50: Trypanosoma cruzi, read-out: EC50 Trypanosoma cruzi
Protocol: In this experiment, amastigote and trypomastigote of Trypanosoma cruzi (Tulahuen C2C4 strain) infected to rat L6 cells were used. The medium used in the experiment was prepared as follows: to RPMI 1640 medium containing L6 cells, L-glutamine (200 mM) and fetal bovine serum was added to achieve concentration of 1% and 10%, respectively. The culture was conducted under CO2 concentration 5% and temperature 37° C.
Either the compound of the invention or a positive control (benznidazole) was dissolved into DMSO to prepare test solution having predefined concentration. To each well in a 96-well culture plate, medium containing 5×10^3 protozoa was added and precultured for 48 hours. After replacing the medium, either the test solution containing compound of the invention in predefined concentration or DMSO without compound was added. The test solution was duplicated.
The plate was cultured in an incubator for 96 hours, and the proliferation inhibition activity was examined. The activity was determined as follows. To each well, 50 μL CPRG/Nonidet was added, then left for 2 to 6 hours. Then the culture plate was mounted on an absorption microplate reader to determine absorption at 540 nm. The trypanosoma infection rate of the sample containing the test compound and that of the control sample was calculated.
(§1) Using the protozoa infection rate thus obtained, the proliferation inhibition rate was calculated according to the following equation to determine 50% proliferation inhibition concentration (EC50).
(§2) Proliferation inhibition rate(%)={1−(b−a)/(c−a)}×100
(§3) a: initial infection rate b: infection rate of the test compound solution c: infection rate of the control

[2] = tested on: Rat-derived L6 cells (rat skeletal myoblast cell); assay: Rat L6 cell proliferation inhibition test; settings: Alamar Blue
[3] = tested on: Plasmodium Falciparum k1 strain; assay: Chloroquine-resistant tropical malaria protozoa proliferation inhibition screening test; settings: for Selective toxicity: EC50 rat L6 cells / EC50 Chloroquine-resistant malaria protozoa; for EC50: Plasmodium falciparum
Outline: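 Infected erythrocytes (0.15% initial infection, 2.5% hematocrit) in RPMI-1640 with 5% human serum were cultured 48 h at 37 °C under 3% O2/4% CO2 with compound, then 24 h with 0.5 μCi [3H]hypoxanthine.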

[4] = tested on: Trypanosoma brucei rhodensiense (STIB 900 strain); assay: African trypanosoma protozoa proliferation inhibition screening test; settings: for EC50 Trypanosoma brucei rhod. / EC50: STIB 900 bloodstream form, 72 hours, Alamar blue; for Selective toxicity: EC50 rat L6 cells / EC50 African trypanosoma protozoa; for EC50: Trypanosoma brucei, STIB900, read-out: EC50 Trypanosoma brucei rhod.
Protocol: In this experiment, bloodstream form trypomastigote of Trypanosoma brucei rhodensiense (STIB 900 strain) was used. The medium used in the experiment was prepared as follows: to filter-sterilized MEM medium, 25 mM N-2-hydroxyethylpiperazine-2-ethane sulfonate (HEPES), 1 g/L glucose, 1% MEM nonessential amino acid, 0.2 mM 2-mercaptoethanol, 2 mM pyruvic calcium salt, 0.1 mM hypoxanthine, and 15% heat-treated horse serum were added. The protozoa was cultured under atmosphere of CO2 concentration 5% and temperature 37° C.
Either the compound of the invention or a positive control (melarsoprol) was dissolved into dimethylsulfoxide (DMSO) to prepare test solution having predefined concentration. To each well in a 96-well culture plate, medium containing 8×10^3 protozoa, and either test solution containing the test compound at predefined concentration or DMSO without compound was added. Then medium was added to achieve 100 μL. The test solution was duplicated.
The culture plate was cultured in an incubator for 72 hours, and the proliferation inhibition activity was examined. The activity was determined as follows. To each well, 10 μL Alamar blue water solution was added, then the plate was again cultured for 2 hours. Then the culture plate was mounted on a fluorescence microplate reader (Spectramax Gemeni XS; Molecular Devices Corporation, U.S.), and irradiated with 536 nm excitation wavelength to determine fluorescence at 588 nm. The trypanosoma infection rate of the sample containing the test composition and that of the control sample was calculated.
as §1, §2, §3

[5] = Tulahuen C2C4 strain in rat L6 cells, 96 hours, CPRG/Nonidet
[6] = chloroquine-resistant K1 strain, 3H-hypoxanthine uptake
[7] = chloroquine-resistant K1 strain, 3H-hypoxanthine uptake, read-out: EC50 P. falciparum K1

Row | SMILES | EC50 Trypanosoma cruzi [1, 5] [µg/mL] | EC50 cytotoxicity L6 ([2]; Table 1, 72 hours) [µg/mL] | EC50 cytotoxicity L6 ([2]; Table 2, 72 hours) [µg/mL] | EC50 cytotoxicity L6 ([2]; Table 3, 72 hours) [µg/mL] | EC50 cytotoxicity L6 ([2]; Table 4, 72 hours) [µg/mL] | EC50 P. falciparum K1 [3, 6] [µg/mL] | EC50 Trypanosoma brucei rhod. [4] [µg/mL] | Selective toxicity [1] | EC50 [1, 5] [µg/mL] | Selective toxicity [3] | EC50 [3, 7] [µg/mL] | Selective toxicity [4] | EC50 [4] [µg/mL] | EC50 ([1]; TULAHUEN, L6, 96 h) [µg/mL] | EC50 ([3]; K1, read-out: EC50 P. falciparum K1) [µg/mL]
1 | CCN1C(=O)/C(=c2/s/c(=C3/C=CC=CN3C)c(=O)n2CC)S/C1=N\c1sc2ccccc2[n+]1C [Compound B-30] | 0.74 | 7.46 | 7.46 | 7.46 | 7.46 | 0.0119 | 0.0625 |  |  |  |  |  |  |  | 
2 | CCN1C(=O)/C(=c2/s/c(=C3/SCCN3C)c(=O)n2CC)S/C1=N\c1sc2cc(Cl)ccc2[n+]1C [Compound B-12] |  |  |  |  |  |  |  | 7 | 0.98 | 507 | 0.0136 | 50 | 0.138 |  | 
3 | CCn1c(=O)/c(=C2\SCCN2C)s/c1=C1\S/C(=N\c2sc3cc(Cl)ccc3[n+]2C)N(C(C)C)C1=O [Compound B-37] |  |  |  |  |  |  |  | 3 | 0.479 | 160 | 0.009 | 19 | 0.052 |  | 
4 | CCN1C(=O)/C(=c2/s/c(=C3/C=CC=CN3C)c(=O)n2CC)S/C1=N\c1sc2cc(Cl)ccc2[n+]1C [Compound B-2] |  |  |  |  |  |  |  |  |  | 4495 | 0.006 | 258 | 0.104 |  | 
5 | CCN1C(=O)/C(=c2/s/c(=C3/SCCN3C)c(=O)n2CC)S/C1=N\c1sc2cc(F)ccc2[n+]1C [Compound B-33] | 0.66 | 9.83 | 9.83 | 9.83 | 9.83 | 0.0167 | 0.1485 |  |  |  |  |  |  |  | 
6 | CCN1C(=O)/C(=C2\Sc3ccccc3N2C)S/C1=N\c1sc2cc(Cl)ccc2[n+]1C [Compound A-1] |  |  |  |  |  |  |  |  |  | 255 | 0.148 | 94 | 0.403 |  | 
7 | CCN1C(=O)/C(=C2\C=Cc3ccccc3N2C)S/C1=N\c1sc2cc(Cl)ccc2[n+]1C [Compound A-2] |  |  |  |  |  |  |  | 18 | 0.31 | 2500 | 0.0022 | 72 | 0.076 |  | 
8 | CCN1C(=O)/C(=c2/s/c(=C3/SCCN3C)c(=O)n2CC)S/C1=N\c1sc2cc(OC)ccc2[n+]1C [Compound B-29] | 0.091 | 1.98 | 1.98 | 1.98 | 1.98 | 0.006 | 0.023 |  |  |  |  |  |  |  | 
9 | CN1/C(=c2\s/c(=C\c3cccc[n+]3CCC(=O)O)n(CC3CO3)c2=O)Sc2ccccc21 (centres unmarked) [Compound S-3, reference compound] |  |  | >90 | >90 | >90 |  |  |  |  | >320 |  | >15 | 6.1 | > 30 | 0.28
10 | CCN1C(=O)/C(=c2/s/c(=C3/C=CC=CN3C)c(=O)n2CC)S/C1=N\c1sc2cc(OC)ccc2[n+]1C [Compound B-28] | 0.314 | 5.01 | 5.01 | 5.01 | 5.01 | 0.007 | 0.042 |  |  |  |  |  |  |  | 
